Experimental data published in patent US20230310534A1, “QUENCHERS THAT SLOW, DECREASE, OR INHIBIT THE FORMATION OF CHEMIEXCITATION-INDUCED CYCLOBUTANE PYRIMIDINE DIMERS” (L'OREAL, priority 2017, published 2023).

Tests used:
Type in all cases: biochemical
[1] = Superoxide radical absorbance capacity (SORAC) test, WST-1 probe; conditions: activity grade 0-4
Protocol: Superoxide radical absorbance capacity tests were conducted to measure the capacity of an antioxidant material to dismutate superoxide anion. The Varioskan Flush was employed to measure the superoxide dismutase-catalyzed dismutation of the superoxide anion in the presence of the absorbance probe, water-soluble tetrazolium salt (WST-1). The superoxide radical antioxidant (SORAC) assay is based on an inhibition assay and is suitable for evaluating superoxide dismutase or superoxide dismutase-like activities in samples.

[2] = Peroxynitrite radical absorbance capacity test, dihydrorhodamine 123 indicator; conditions: activity grade 0-4
Protocol: Peroxynitrite radical absorbance capacity tests were conducted to measure the capacity of an antioxidant material to quench peroxynitrite. Dihydrorhodamine 123 was used as an indicator of peroxynitrite in tubo for peroxynitrite radical absorbance capacity tests with Varioskan Flush. […]

[3] = Melanin oxidation assay (peroxynitrite/melanin chemiluminescence quenching); conditions: peroxynitrite, melanin and DBAS in DMSO; measured at 150 seconds and 500 seconds
From the text: An easy and fast assay was developed to measure quenching of chemiluminescence from the triplet carbonyl of a cleaved dioxetane that was created when peroxynitrite (ONOO—) reacted with melanin. As such, it measured both triplet quenching and any scavenging activity that prevented the chemiexcitation reaction from starting. DMSO was used as a solvent for the entire reaction, DBAS to enhance the luminescence and a liquid scintillation counter set to single-photon mode to detect the luminescence signal.
In this assay, peroxynitrite, melanin, and DBAS were incubated in DMSO in the absence or presence of test agents, and light emission quenching (%) was measured at 150 seconds and 500 seconds (FIG. 1).

| Compound | Anti-superoxide [1] | Anti-peroxynitrite [2] | light emission quenching (hit) [3] |
| --- | --- | --- | --- |
| O=C(O[C@@H]1Cc2c(O)cc(O)cc2O[C@@H]1c1cc(O)c(O)c(O)c1)c1cc(O)c(O)c(O)c1 [Epigallocatechin Gallate] | 4 | 4 | showed a quenching effect |
| O=c1oc2c(O)c(O)cc3c(=O)oc4c(O)c(O)cc1c4c23 [Ellagic acid] | 2 | 4 | showed a quenching effect |
| C/C=C/C=C/C(=O)O [sorbic acid] | – | – | showed a quenching effect |
| CC1=C(/C=C/C(C)=C/C=C/C(C)=C/C=C/C=C(C)/C=C/C=C(C)/C=C/C2=C(C)CCCC2(C)C)C(C)(C)CCC1 [beta-carotene] | – | – | showed a quenching effect |
| COc1cc(/C=C/C(=O)O)ccc1O [Ferulic Acid] | 1 | 4 | showed a quenching effect |
| O=C(O)c1cccc(C(=O)O)n1 [dipicolinic acid] | – | – | showed a quenching effect |
| CC(C)=CCC/C(C)=C/CC/C(C)=C/CC/C=C(\C)CC/C=C(\C)CCC=C(C)C [squalene] | – | – | showed a quenching effect |
